Holding throughout (type): in vivo
For assay [1], the system named is Rats. The assay is described as follows: Oral Glucose Tolerance Test (OGTT) in rats, single injection (blood glucose AUC, body weight, food consumption). Conditions: for Food Consumption (g) / Body weight change (%): 30 nM/kg s.c.; for Food Consumption (g): 0-12 hr; for Food Consumption (g) / Body weight change (%) / Blood Glucose AUC(0-120min) Mean: mean (n=4); for Blood Glucose AUC(0-120min) Mean: OGTT 2 g/kg glucose orally, 24 hr post subcutaneous injection of 30 nM/kg; for % Change in Blood glucose AUC(0-120min) vs placebo control: OGTT 24 hr post subcutaneous injection of 30 nM/kg. The procedure:
Animals were divided into 6 groups (n=4/group): a placebo control group, Compound 17, (30 nM/kg), Compound 18 (30 nM/kg), Compound 19 (30 nM/kg), Compound 20 (30 nM/kg), and Retatrutide (30 nM/kg). Animals were fasted for 12 hours before initiation of OGTT. After 24 hours of subcutaneous injection of tests or Retatrutide, blood glucose was measured with blood glucometer (time 0 measurement). All the animals were given 2 g/kg of glucose solution orally. Blood glucose was measured at 10, 20, 40, 60, 90, and 120 min following glucose challenge. Body weight and food consumption were recorded at 12 hr, 48 hr and 72 hr.

The subject of assay [2] is Rats. The assay is described as above. Conditions: 30 nM/kg s.c., mean (n=4); for Body weight change (%): 24 hr.
In assay [3] the test system is Type 2 diabetes mouse (db/db) model. Briefly: Efficacy study in db/db mice (blood glucose, body weight, food consumption). Conditions: 10 nM/kg s.c. single dose, mean (n=6). On the procedure:
The effect of the compounds as described herein on blood glucose, food intake and body weight were studied in mice. This study was performed in Type 2 diabetes mouse (db/db) model. The animals were divided into 9 treatment groups (n=6): a diabetic control group, Compound 12 (10 nM/kg), Compound 13 (10 nM/kg), Compound 26 (10 nM/kg), Compound 14 (10 nM/kg), Compound 15 (10 nM/kg), Compound 21 (10 nM/kg), Compound 22 (10 nM/kg), and Tirzepatide (10 nM/kg). Baseline blood glucose was measured from all the animals. All the animals were administered with test item subcutaneously. Blood glucose was measured at 4 hr, 8 hr, 12 hr, 24 hr, 48 hr, 72 hr, and 96 hr post treatment. Delta blood glucose (mM) was calculated. Body weight changes and cumulative food consumption were measured at 48 hr and 96 hr post treatment. Table 3. Effect on Blood Glucose

The values below come from EP4803094A2, “GLP-1/GIP DUAL, GLP-1/GCG DUAL AND GLP-1/GIP/GCG TRIPLE RECEPTOR AGONISTS” (Sun Pharmaceutical Industries Limited, priority 2023, dated 2024).

Marks after values point to notes of the source that are not given here.

As to `CC[C@H](C)[C@H](NC(=O)[C@H](Cc1ccccc1)NC(=O)[C@H](C)NC(=O)C(C)(C)NC(=O)[C@H](CCC(N)=O)NC(=O)[C@H](C)NC(=O)[C@H](CCCCNC(=O)COCCOCCNC(=O)NCCCCNC(=O)CC[C@H](NC(=O)CCCCCCCCCCCCCCCCC(=O)O)C(=O)O)NC(=O)[C@H](CCCCN)NC(=O)[C@H](CC(=O)O)NC(=O)[C@H](CC(C)C)NC(=O)[C@](C)(CC(C)C)NC(=O)[C@@H](NC(=O)[C@H](CO)NC(=O)[C@H](Cc1ccc(O)cc1)NC(=O)[C@H](CC(=O)O)NC(=O)[C@H](CO)NC(=O)[C@@H](NC(=O)[C@H](Cc1ccccc1)NC(=O)[C@@H](NC(=O)CNC(=O)[C@H](CCC(N)=O)NC(=O)C(C)(C)NC(=O)[C@@H](N)Cc1ccc(O)cc1)[C@@H](C)O)[C@@H](C)O)[C@@H](C)CC)C(=O)N[C@@H](CCC(=O)O)C(=O)N[C@@H](Cc1ccc(O)cc1)C(=O)N[C@@H](CC(C)C)C(=O)N[C@@H](CC(C)C)C(=O)N[C@@H](CCC(=O)O)C(=O)NCC(=O)NCC(=O)N1CCC[C@H]1C(=O)N[C@@H](CO)C(=O)N[C@@H](CO)C(=O)NCC(=O)N[C@@H](C)C(=O)N1CCC[C@H]1C(=O)N1CCC[C@H]1C(=O)N1CCC[C@H]1C(=O)N[C@@H](CO)C(N)=O` [Compound 19], the results for the “Food Consumption (g)” value in the assay on Rats [1], in the assay on Rats [2] (24-48 hr) and in the assay on Rats [2] (24-72 hr) were 1.3*** g, 7.2*** g and 17.0*** g, respectively. Moreover, the “Body weight change (%)” value is reported as -4.9*** % in the assay on Rats [1] (48 hr), -2.6*** % with Rats [1] (72 hr) and -6.3*** % with Rats [2]. Besides, the “Blood Glucose AUC(0-120min) Mean” value in the assay with Rats [1] is on record as 3848.8***. The “% Change in Blood glucose AUC(0-120min) vs placebo control” value with Rats [1] is -60.20%.
On to `CC[C@H](C)[C@H](NC(=O)[C@H](Cc1ccccc1)NC(=O)[C@H](C)NC(=O)C(C)(C)NC(=O)[C@H](CCC(N)=O)NC(=O)[C@H](C)NC(=O)[C@H](CCCCNC(=O)COCCOCCNC(=O)C(C)(C)NC(=O)CC[C@H](NC(=O)CCCCCCCCCCCCCCCCC(=O)O)C(=O)O)NC(=O)[C@H](CCCCN)NC(=O)[C@H](CC(=O)O)NC(=O)[C@H](CC(C)C)NC(=O)[C@](C)(CC(C)C)NC(=O)[C@@H](NC(=O)[C@H](CO)NC(=O)[C@H](Cc1ccc(O)cc1)NC(=O)[C@H](CC(=O)O)NC(=O)[C@H](CO)NC(=O)[C@@H](NC(=O)[C@H](Cc1ccccc1)NC(=O)[C@@H](NC(=O)CNC(=O)[C@H](CCC(N)=O)NC(=O)C(C)(C)NC(=O)[C@@H](N)Cc1ccc(O)cc1)[C@@H](C)O)[C@@H](C)O)[C@@H](C)CC)C(=O)N[C@@H](CCC(=O)O)C(=O)N[C@@H](Cc1ccc(O)cc1)C(=O)N[C@@H](CC(C)C)C(=O)N[C@@H](CC(C)C)C(=O)N[C@@H](CCC(=O)O)C(=O)NCC(=O)NCC(=O)N1CCC[C@H]1C(=O)N[C@@H](CO)C(=O)N[C@@H](CO)C(=O)NCC(=O)N[C@@H](C)C(=O)N1CCC[C@H]1C(=O)N1CCC[C@H]1C(=O)N1CCC[C@H]1C(=O)N[C@@H](CO)C(N)=O` [Compound 12], for which, in assay [3], the “Cumulative Food Consumption (g) 0-48 hr” value is 3.1*** g. Moreover, in assay [3], the “Cumulative Food Consumption (g) 0-96 hr” value is 10.9*** g. The “Delta Blood Glucose” value is reported as -3.2 mM in assay [3] (4 hr post treatment) and -6.4 mM in assay [3] (96 hr post treatment). In addition, the “Delta Blood Glucose (mM)” value in assay [3] (8 hr post treatment) is -8.9* mM; in assay [3] (12 hr post treatment), -13.2*** mM; in assay [3] (24 hr post treatment) it was -13.7*** mM; in assay [3] (48 hr post treatment), -11.4*** mM; in assay [3] (72 hr post treatment) it was -9.2** mM. Moreover, the “Body Weight Change (%) 48 hr” value in assay [3] is given as -8.0*** %. In addition, in assay [3], the “Body Weight Change (%) 96 hr” value is -3.7*** %.
For the molecule `CC[C@H](C)[C@H](NC(=O)[C@H](Cc1ccccc1)NC(=O)[C@H](C)NC(=O)C(C)(C)NC(=O)[C@H](CCC(N)=O)NC(=O)[C@H](C)NC(=O)[C@H](CCCCNC(=O)COCCOCCNC(=O)CC[C@H](NC(=O)CCCCCCCCCCCCCCCCCCC(=O)O)C(=O)O)NC(=O)[C@H](CCCCN)NC(=O)[C@H](CC(=O)O)NC(=O)[C@H](CC(C)C)NC(=O)[C@](C)(CC(C)C)NC(=O)[C@@H](NC(=O)[C@H](CO)NC(=O)[C@H](Cc1ccc(O)cc1)NC(=O)[C@H](CC(=O)O)NC(=O)[C@H](CO)NC(=O)[C@@H](NC(=O)[C@H](Cc1ccccc1)NC(=O)[C@@H](NC(=O)CNC(=O)[C@H](CCC(N)=O)NC(=O)C(C)(C)NC(=O)[C@@H](N)Cc1ccc(O)cc1)[C@@H](C)O)[C@@H](C)O)[C@@H](C)CC)C(=O)N[C@@H](CCC(=O)O)C(=O)N[C@@H](Cc1ccc(O)cc1)C(=O)N[C@@H](CC(C)C)C(=O)N[C@@H](CC(C)C)C(=O)N[C@@H](CCC(=O)O)C(=O)NCC(=O)NCC(=O)N1CCC[C@H]1C(=O)N[C@@H](CO)C(=O)N[C@@H](CO)C(=O)NCC(=O)N[C@@H](C)C(=O)N1CCC[C@H]1C(=O)N1CCC[C@H]1C(=O)N1CCC[C@H]1C(=O)N[C@@H](CO)C(N)=O` [Retatrutide, reference compound], the figures for the “Food Consumption (g)” value in the assay on Rats [1], in the assay on Rats [2] (24-48 hr) and in the assay with Rats [2] (24-72 hr) were 0.7*** g, 8.6*** g and 23.8*** g, respectively. The results for the “Body weight change (%)” value in the assay on Rats [1] (48 hr), with Rats [1] (72 hr) and with Rats [2] were -4.5*** %, -2.5*** % and -6.0*** %, respectively. For the same molecule, the “Blood Glucose AUC(0-120min) Mean” value in the assay with Rats [1] is 3792.5***. In addition, in the assay on Rats [1], the “% Change in Blood glucose AUC(0-120min) vs placebo control” value was -60.79%.
In the case of `CCCC[C@H](NC(=O)[C@@H](NC(=O)[C@H](CO)NC(=O)[C@H](Cc1ccc(O)cc1)NC(=O)[C@H](CC(=O)O)NC(=O)[C@H](CO)NC(=O)[C@@H](NC(=O)[C@H](Cc1ccccc1)NC(=O)[C@@H](NC(=O)CNC(=O)[C@H](CCC(N)=O)NC(=O)C(C)(C)NC(=O)[C@@H](N)Cc1ccc(O)cc1)[C@@H](C)O)[C@@H](C)O)[C@@H](C)CC)C(=O)N[C@@H](CC(C)C)C(=O)N[C@@H](CC(=O)O)C(=O)N[C@@H](CCCCN)C(=O)N[C@@H](CCCCNC(=O)COCCOCCNC(=O)C(C)(C)NC(=O)CC[C@H](NC(=O)CCCCCCCCCCCCCCCCCCC(=O)O)C(=O)O)C(=O)N[C@@H](C)C(=O)N[C@@H](CCC(N)=O)C(=O)NC(C)(C)C(=O)N[C@@H](C)C(=O)N[C@@H](Cc1ccccc1)C(=O)N[C@H](C(=O)N[C@@H](CCC(=O)O)C(=O)N[C@@H](Cc1ccc(O)cc1)C(=O)N[C@@H](CC(C)C)C(=O)N[C@@H](CC(C)C)C(=O)N[C@@H](CCC(=O)O)C(=O)NCC(=O)NCC(=O)N1CCC[C@H]1C(=O)N[C@@H](CO)C(=O)N[C@@H](CO)C(=O)NCC(=O)N[C@@H](C)C(=O)N1CCC[C@H]1C(=O)N1CCC[C@H]1C(=O)N1CCC[C@H]1C(=O)N[C@@H](CO)C(N)=O)[C@@H](C)CC` [Compound 14], the “Cumulative Food Consumption (g) 0-48 hr” value in assay [3] was 3.0*** g. For the same molecule, the “Cumulative Food Consumption (g) 0-96 hr” value in assay [3] is 8.3*** g. The “Delta Blood Glucose” value is on record as -3.8 mM in assay [3] (4 hr post treatment); -3.1 mM in assay [3] (8 hr post treatment); -6.2 mM in assay [3] (12 hr post treatment); -7 mM in assay [3] (72 hr post treatment); -2.6 mM in assay [3] (96 hr post treatment). Besides, the “Delta Blood Glucose (mM)” value was -9.2** mM in assay [3] (24 hr post treatment) and -9.3* mM in assay [3] (48 hr post treatment). Besides, in assay [3], the “Body Weight Change (%) 48 hr” value is -8.8*** %. The “Body Weight Change (%) 96 hr” value in assay [3] is -7.1*** %.
